# Earlier results, collected in publication PMC2874326 (Bioconjugate chemistry, 2010).
# System: cells
# Details: relative to Tat and unmodified poly-arginine cell penetrating peptides
substance,measurement,value
C14-βAla-(Arg)7-Cys(SH)-NH2 [MPAP],enhancement of peptide entry into cells by myristoylation,several-fold
